Molecular target: ERK2 (Homo sapiens, UniProt P28482)
Assay: ERK2 inhibition assay (spectrophotometric coupled-enzyme assay)
Assay type: biochemical
Details: activated ERK2 10 nM, 65 μM ATP, 200 μM erktide peptide, 30° C., pH 7.5
Description: Compounds were assayed for the inhibition of ERK2 by a spectrophotometric coupled-enzyme assay (Fox et al (1998) Protein Sci 7, 2249). In this assay, a fixed concentration of activated ERK2 (10 nM) was incubated with various concentrations of the compound in DMSO (2.5%) for 10 min. at 30° C. in 0.1 M HEPES buffer, pH 7.5, containing 10 mM MgCl2, 2.5 mM phosphoenolpyruvate, 200 μM NADH, 150 μg/mL pyruvate kinase, 50 μg/mL lactate dehydrogenase, and 200 μM erktide peptide. The reaction was initiated by the addition of 65 μM ATP. The rate of decrease of absorbance at 340 nm was monitored. The Ki and IC50 were evaluated from the rate data as a function of inhibitor concentration.

ERK2, sequence (P28482 whole entry, species assumed): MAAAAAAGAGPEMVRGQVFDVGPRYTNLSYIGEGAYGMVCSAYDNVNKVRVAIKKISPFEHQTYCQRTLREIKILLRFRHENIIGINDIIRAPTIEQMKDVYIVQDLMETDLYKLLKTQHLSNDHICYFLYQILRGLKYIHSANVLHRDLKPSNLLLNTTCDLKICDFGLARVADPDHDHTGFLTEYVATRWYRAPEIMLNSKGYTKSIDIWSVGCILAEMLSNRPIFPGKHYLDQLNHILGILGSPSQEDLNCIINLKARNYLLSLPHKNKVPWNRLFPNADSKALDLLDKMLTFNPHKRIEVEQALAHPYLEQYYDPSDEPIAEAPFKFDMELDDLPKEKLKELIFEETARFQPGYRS

| Ki [nM] | Structure (SMILES) |
| --- | --- |
| < 100 | CCOc1ncc(C)c(-c2c[nH]c(C(=O)N[C@H](CO)c3ccccc3)c2)n1 [Compound I-22, 4-(5-methyl-2-ethoxy-pyrimidin-4-yl)-1H-pyrrole-2 carboxylic acid (2-hydroxy-1-(S)-phenyl-ethyl)-amide] |
| < 100 | Cc1cnc(-c2ccccc2)nc1-c1c[nH]c(C(=O)N[C@H](CO)c2ccccc2)c1 [Compound I-24, 4-(5-Methyl-2-phenyl-pyrimidin-4-yl)-1H-pyrrole-2 carboxylic acid (2-hydroxy-1-(S)-phenyl-ethyl)-amide] |

From patent US7304061B2, “Heterocyclic inhibitors of ERK2 and uses thereof” (Vertex Pharmaceuticals Incorporated, priority 2002, dated 2007)
